{"source": "patent US9180164B2", "about": "“Compounds and methods of modulating angiogenesis” (THE CLEVELAND CLINIC FOUNDATION, priority 2011, dated 2015)", "key": {"[1]": {"tested_on": "αvβ3 integrin", "assay": "Fibrinogen binding assay (FACS)", "format": "cell-based, mouse", "details": "DiYF EC; 20 ng/ml VEGF or 1 mM MnCl2", "description": "(§1) To assess fibrinogen binding, semiconfluent wild type and DiYF mouse lung endothelial cells were serum starved for 4 h and further induced with 20 ng/ml VEGF-165, 20 ng/ml b-FGF or 1 mm MnC12. Fluorescein isothiocyanate (FITC)-labeled fibrinogen was added at a final concentration of 200 nM for 45 min. […] Fluorescence-activated cell sorting (FACS) was performed using a FACS Calibur (Becton Dickinson, San Jose, Calif.) and data were analyzed using CellQuest software program."}, "[2]": {"target": "T1, αvβ3 integrin (Mus musculus, UniProt O54890+P43406)", "T1 construct": "endogenous in cells; host or cells: primary mouse lung endothelial cells", "T1 sequence (O54890 26-787)": "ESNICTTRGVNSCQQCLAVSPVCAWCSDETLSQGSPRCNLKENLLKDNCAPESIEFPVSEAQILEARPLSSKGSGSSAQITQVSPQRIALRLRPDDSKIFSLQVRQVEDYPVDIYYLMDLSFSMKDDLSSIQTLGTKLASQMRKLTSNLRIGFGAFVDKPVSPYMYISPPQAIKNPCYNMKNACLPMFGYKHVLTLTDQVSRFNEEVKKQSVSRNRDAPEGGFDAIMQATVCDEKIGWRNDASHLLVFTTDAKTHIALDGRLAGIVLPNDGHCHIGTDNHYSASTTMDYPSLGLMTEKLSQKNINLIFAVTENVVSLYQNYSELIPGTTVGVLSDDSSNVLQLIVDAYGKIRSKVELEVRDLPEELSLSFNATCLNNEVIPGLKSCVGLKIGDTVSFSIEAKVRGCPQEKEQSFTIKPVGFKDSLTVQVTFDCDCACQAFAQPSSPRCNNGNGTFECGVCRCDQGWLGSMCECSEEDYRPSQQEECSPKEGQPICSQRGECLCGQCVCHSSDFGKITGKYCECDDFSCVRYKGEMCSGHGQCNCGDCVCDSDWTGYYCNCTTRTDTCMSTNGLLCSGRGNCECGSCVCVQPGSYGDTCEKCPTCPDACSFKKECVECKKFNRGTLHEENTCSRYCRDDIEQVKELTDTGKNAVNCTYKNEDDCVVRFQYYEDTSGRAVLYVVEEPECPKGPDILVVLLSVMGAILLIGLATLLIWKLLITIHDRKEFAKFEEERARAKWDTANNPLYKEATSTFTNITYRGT", "T1 sequence (P43406 31-885 limits assumed)": "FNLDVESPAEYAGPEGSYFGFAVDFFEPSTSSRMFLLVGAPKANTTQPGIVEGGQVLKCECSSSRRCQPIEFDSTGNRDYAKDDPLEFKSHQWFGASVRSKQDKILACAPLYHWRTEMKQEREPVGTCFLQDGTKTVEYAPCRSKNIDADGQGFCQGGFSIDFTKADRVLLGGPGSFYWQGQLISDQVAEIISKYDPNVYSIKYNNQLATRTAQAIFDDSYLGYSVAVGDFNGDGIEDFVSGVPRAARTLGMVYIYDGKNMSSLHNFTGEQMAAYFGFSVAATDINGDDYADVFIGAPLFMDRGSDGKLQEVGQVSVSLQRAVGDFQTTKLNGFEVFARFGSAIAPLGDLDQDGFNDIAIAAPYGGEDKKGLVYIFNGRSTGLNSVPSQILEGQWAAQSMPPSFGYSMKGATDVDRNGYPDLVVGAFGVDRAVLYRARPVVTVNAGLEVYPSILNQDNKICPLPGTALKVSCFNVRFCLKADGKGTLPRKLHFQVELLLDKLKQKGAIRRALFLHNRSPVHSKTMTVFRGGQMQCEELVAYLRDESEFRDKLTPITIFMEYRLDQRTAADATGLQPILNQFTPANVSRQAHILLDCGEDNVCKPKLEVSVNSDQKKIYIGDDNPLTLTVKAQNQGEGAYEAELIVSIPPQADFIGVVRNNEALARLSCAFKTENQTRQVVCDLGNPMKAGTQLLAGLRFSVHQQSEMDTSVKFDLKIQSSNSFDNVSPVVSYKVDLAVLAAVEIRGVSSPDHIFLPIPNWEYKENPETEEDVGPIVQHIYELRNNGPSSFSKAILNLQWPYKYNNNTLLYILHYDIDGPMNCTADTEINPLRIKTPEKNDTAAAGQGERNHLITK", "T1 sequence (P43406 887-1044 limits assumed)": "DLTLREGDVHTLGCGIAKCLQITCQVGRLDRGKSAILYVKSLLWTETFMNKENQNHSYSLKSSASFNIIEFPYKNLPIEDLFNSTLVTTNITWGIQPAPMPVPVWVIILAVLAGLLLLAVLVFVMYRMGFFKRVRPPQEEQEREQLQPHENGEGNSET", "assay": "Fibrinogen binding assay (FACS)", "format": "cell-based", "details": "WT EC; 20 ng/ml VEGF or 1 mM MnCl2", "description": "as §1"}, "[3]": {"target": "T2, VEGFR-2 (Mus musculus, UniProt P35918)", "T2 construct": "endogenous in cells; host or cells: primary mouse lung endothelial cells (WT and DiYF mice)", "T2 sequence (P35918 20-1345)": "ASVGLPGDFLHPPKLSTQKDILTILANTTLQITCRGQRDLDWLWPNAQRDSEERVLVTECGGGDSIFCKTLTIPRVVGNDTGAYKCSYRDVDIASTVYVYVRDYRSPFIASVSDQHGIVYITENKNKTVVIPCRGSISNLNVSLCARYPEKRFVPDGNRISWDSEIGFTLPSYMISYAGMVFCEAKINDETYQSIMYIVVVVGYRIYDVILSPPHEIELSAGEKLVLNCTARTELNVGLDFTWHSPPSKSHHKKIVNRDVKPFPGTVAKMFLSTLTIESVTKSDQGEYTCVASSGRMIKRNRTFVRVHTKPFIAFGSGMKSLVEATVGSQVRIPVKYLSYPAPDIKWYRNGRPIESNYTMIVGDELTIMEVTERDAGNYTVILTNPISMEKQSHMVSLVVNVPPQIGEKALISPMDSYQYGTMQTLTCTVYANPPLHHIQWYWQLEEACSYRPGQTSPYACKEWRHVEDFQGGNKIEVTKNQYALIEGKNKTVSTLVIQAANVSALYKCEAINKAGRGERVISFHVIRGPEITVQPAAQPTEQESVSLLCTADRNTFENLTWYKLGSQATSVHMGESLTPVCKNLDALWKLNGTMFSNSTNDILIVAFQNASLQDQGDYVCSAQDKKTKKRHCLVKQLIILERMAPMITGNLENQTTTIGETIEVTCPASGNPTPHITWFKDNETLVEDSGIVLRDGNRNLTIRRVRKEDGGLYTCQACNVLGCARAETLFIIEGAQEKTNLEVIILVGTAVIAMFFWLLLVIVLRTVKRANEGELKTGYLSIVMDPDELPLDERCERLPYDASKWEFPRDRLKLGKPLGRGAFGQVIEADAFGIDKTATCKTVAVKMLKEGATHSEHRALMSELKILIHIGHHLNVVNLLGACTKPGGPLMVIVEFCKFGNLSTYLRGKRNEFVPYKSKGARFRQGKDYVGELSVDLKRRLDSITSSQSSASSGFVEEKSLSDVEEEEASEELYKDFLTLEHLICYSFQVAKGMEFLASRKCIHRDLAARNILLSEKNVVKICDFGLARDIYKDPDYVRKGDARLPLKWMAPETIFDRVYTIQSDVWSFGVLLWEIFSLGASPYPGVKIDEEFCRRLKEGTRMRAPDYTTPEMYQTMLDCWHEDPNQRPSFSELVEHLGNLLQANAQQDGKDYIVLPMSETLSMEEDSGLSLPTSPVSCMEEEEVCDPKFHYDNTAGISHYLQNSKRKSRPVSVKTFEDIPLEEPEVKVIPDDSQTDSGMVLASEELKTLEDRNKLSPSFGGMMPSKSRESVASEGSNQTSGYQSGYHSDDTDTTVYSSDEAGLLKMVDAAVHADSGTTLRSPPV", "assay": "VEGFR-2 phosphorylation time course in mouse lung endothelial cells", "format": "cell-based", "details": "20 ng/ml VEGF", "description": "Serum starved wild type and DiYF endothelial cells were also treated with 20 ng/ml VEGF for 0-60 mins. Cell lysates were analyzed by Western blot using anti-integrin β3 [pY^747], anti-integrin [pY^759], anti-p-VEGFR-2, anti-VEGFR-2, anti-p-ERK1/2, anti-ERK1/2, anti-p-Akt, anti-Akt, anti-p-P38MAPK and anti-MAPK antibody. The wild type and DiYF endothelial cells were lysed and equal proteins from total cell lysates were subjected SDS-PAGS and analyzed by western blot using anti-VEGFR-2 and anti-CD-31 antibody."}, "[4]": {"tested_on": "αvβ3 integrin", "assay": "WOW-1 binding assay, mouse lung endothelial cells", "format": "cell-based", "details": "DiYF EC; 20 ng/ml VEGF or 1 mM MnCl2", "description": "(§2) Wild type and DiYF mouse lung endothelial cells were serum starved for 4 h and further stimulated with 20 ng/ml VEGF-165, 20 ng/ml b-FGF or 1 mm MnC12 separately. WoW-1 Fab was added at a final concentration of […], followed by addition of Fluorescein isothiocyanate (FITC) conjugated goat anti-mouse IgG at 10 μg/ml. After 30 min cells were fixed with 3.7% formaldehyde/PBS for 15 min, washed twice with 1×PBS and FACS was performed using a FACS Calibur (Becton Dickinson, San Jose, Calif.) instrument and data were analyzed using CellQuest software program."}, "[5]": {"target": "T1, αvβ3 integrin", "assay": "WOW-1 binding assay, mouse lung endothelial cells", "format": "cell-based", "details": "WT EC; 20 ng/ml VEGF or 1 mM MnCl2", "description": "as §2"}}}
{"substance": "VEGF", "values": [{"measurement": "increase of fibrinogen binding", "setting": "[1]", "result": 3, "unit": "fold"}, {"measurement": "increase of fibrinogen binding", "setting": "[2]", "result": "at least 6 fold"}, {"measurement": "maximum increase in VEGFR-2 phosphorylation over control", "setting": "[3]; DiYF EC", "result": 2.5, "unit": "fold"}, {"measurement": "maximum increase in VEGFR-2 phosphorylation over control", "setting": "[3]; WT EC", "result": 6, "unit": "fold"}, {"measurement": "increase in WOW-1 binding", "setting": "[4]", "result": 3.5, "unit": "fold"}, {"measurement": "increase in WOW-1 binding", "setting": "[5]", "result": 9, "unit": "fold"}]}
